{
  "source": "ChEMBL document CHEMBL4396870",
  "about": "“Pharmacological Chaperones for the Treatment of α-Mannosidosis” (J Med Chem, 2019)",
  "key": {"[1]": {"system": "T1, Lysosomal alpha-mannosidase (Homo sapiens), O00754 [L352P]", "T1 sequence (whole entry)": "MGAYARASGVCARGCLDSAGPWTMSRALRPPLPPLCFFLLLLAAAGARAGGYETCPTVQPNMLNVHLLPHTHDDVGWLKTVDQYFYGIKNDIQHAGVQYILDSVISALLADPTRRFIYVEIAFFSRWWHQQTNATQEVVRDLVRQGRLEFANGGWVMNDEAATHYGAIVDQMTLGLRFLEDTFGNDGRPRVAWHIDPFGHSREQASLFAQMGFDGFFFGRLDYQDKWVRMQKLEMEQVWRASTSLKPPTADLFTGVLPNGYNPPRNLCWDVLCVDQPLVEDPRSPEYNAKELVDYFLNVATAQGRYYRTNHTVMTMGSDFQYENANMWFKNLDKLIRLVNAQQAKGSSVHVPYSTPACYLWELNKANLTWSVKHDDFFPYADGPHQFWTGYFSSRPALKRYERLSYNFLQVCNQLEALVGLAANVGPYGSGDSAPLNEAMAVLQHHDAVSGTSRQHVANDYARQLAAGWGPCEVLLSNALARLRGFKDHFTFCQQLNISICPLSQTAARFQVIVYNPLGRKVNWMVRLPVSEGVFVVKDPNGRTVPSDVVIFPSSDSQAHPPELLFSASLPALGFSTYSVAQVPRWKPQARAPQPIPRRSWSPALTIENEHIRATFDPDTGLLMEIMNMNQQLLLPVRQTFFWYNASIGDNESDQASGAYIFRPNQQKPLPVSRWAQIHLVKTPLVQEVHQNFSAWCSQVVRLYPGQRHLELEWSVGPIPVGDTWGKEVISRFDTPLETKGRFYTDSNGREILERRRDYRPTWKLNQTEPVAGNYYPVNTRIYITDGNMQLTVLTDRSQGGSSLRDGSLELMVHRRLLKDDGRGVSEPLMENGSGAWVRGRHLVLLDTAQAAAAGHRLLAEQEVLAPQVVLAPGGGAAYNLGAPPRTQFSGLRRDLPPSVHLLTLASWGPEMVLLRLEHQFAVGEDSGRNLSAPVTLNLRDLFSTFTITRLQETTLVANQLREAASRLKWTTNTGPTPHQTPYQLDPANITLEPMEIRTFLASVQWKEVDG", "test": "Chaperone activity at human Lysosomal alpha-mannosidase L352P mutant transfected in human […] knockout HAP1 cells assessed as enzyme activity enhancement at 20 uM incubated for 96 hrs relative to control"}, "[2]": {"system": "T2, Lysosomal alpha-mannosidase (Homo sapiens), O00754 [L565P]", "T2 sequence (whole entry)": "T1 sequence (whole entry) with P352L, L565P", "test": "Chaperone activity at human Lysosomal alpha-mannosidase L565P mutant transfected in human […] knockout HAP1 cells assessed as enzyme activity enhancement at 2 uM incubated for 96 hrs relative to control"}},
  "note": "Changes are numbered by the printed parent chain.",
  "data": [
    {"smiles": "COC[C@H]1O[C@@H]2O[C@H]3[C@H](OC)[C@@H](OC)[C@@H](O[C@H]4[C@H](OC)[C@@H](OC)[C@@H](O[C@H]5[C@H](OC)[C@@H](OC)[C@@H](O[C@H]6[C@H](OC)[C@@H](OC)[C@@H](O[C@H]7[C@H](OC)[C@@H](OC)[C@@H](O[C@H]8[C@H](OC)[C@@H](OC)[C@@H](O[C@H]1[C@H](OC)[C@H]2OC)O[C@@H]8COC)O[C@@H]7COC)O[C@@H]6COC)O[C@@H]5COCc1cn(CCCCCCN[C@@H]2[C@@H](O)[C@@H](O)[C@H](O)[C@H]5COC(=O)N52)nn1)O[C@@H]4COC)O[C@@H]3COC", "values": [
      {"measurement": "Activity", "setting": "[1]", "result": 4, "unit": "%"},
      {"measurement": "Activity", "setting": "[2]", "result": 8, "unit": "%"}
    ]},
    {"smiles": "CC(C)(C)OC(=O)NCCCCCCCCCN[C@@H]1[C@@H](O)[C@@H](O)[C@H](O)[C@H]2COC(=O)N21", "values": [
      {"measurement": "Activity", "setting": "[1]", "result": 3, "unit": "%"},
      {"measurement": "Activity", "setting": "[2]", "result": 14, "unit": "%"}
    ]}
  ]
}
